Laboratory results: US8063018B2, “Bivalent thrombin binding molecules comprising linkers” (National Research Council of Canada, priority 2004, dated 2011)
Several values for one entry are separate records, joined by “and”; a condition that tells them apart may be missing. Identical values can stand only once. Like-named read-outs stand apart in the source and are kept apart here. Non-standard residues stand in square brackets, D forms with d. Primed or numbered codes have the meaning given here. No end group written: not given here. *: point of attachment. Benzenesulfonyl(4-tBu) = CC(C)(C)c1ccc(S(=O)(=O)*)cc1; dPip′ = not defined here

Columns and labels:
thrombin [1] = target: T1, thrombin (Homo sapiens, UniProt P00734); experiment: Kinetic amidolytic assay with chromogenic substrate S-2238 (inhibition constants); assay type: biochemical
Procedure: Peptides were freeze-dried and their identity was confirmed by ion-spray mass spectrometry. Clotting assays were carried out by use of the protocols described previously (DiMaio and others, 1990, 21698-21703; Witting and others, 1992, 737-743). The assay employs bovine plasma fibrinogen dissolved at 0.1% in 50 mM Tris-Cl, 100 mM NaCl, 0.1% PEG-8000 at pH 7.6 (i.e. the clotting buffer). Each assay mixture contained a certain concentration of the peptide, and the reaction was started by the addition of human thrombin to a final concentration of 0.6-1.2 nM. Optical absorbance increase at 420 nm caused by fibrin clot formation was measured at 25° C. or 37° C. using the Spectramax plate reader. The onset clotting time was determined as an intersection of the baseline and the extrapolated linear portion of the OD change curve. The concentration of a peptide needed to double the clotting time was defined as IC50 (DiMaio and others, 1990, 21698-21703). Kinetic amidolytic curves were obtained in clotting buffer at 25° C. using eight inhibitor concentrations and three to five concentrations of the chromogenic substrate S-2238 (Chromogenix) (DiMaio and others, 1990, 21698-21703). Inhibition constants were extracted from Lineweaver-Burk equation by using weighted linear regression. Errors in Ki determination were estimated by using Monte-Carlo sampling with 1-3% variance of the experimental points. Peptide concentrations were determined spectrophotometrically using predicted extinction coefficients at 278 nm (Gill and von Hippel, 1989, 319-326).

thrombin [2] = target: T1, thrombin; experiment: Fibrinogen clotting assay catalyzed by thrombin; assay type: biochemical; details: for IC50: IC50, nM (37° C.), 37° C., concentration needed to double the clotting time; for Clotting onset time: 150 nM peptide, 0.6 nM thrombin
α-thrombin = α-thrombin (Homo sapiens, UniProt P00734); experiment: Effect of calcium on inhibition of the amidolytic activity of thrombin (S-3266); assay type: biochemical; design: chromogenic substrate proteolysis by human α-thrombin; details: 50 and 100 mM calcium, 0.6 nM thrombin, 25° C.
thrombin [3] = target: T1, thrombin; details: cited from earlier work
[4] = Calcium binding followed by proton NMR; details: CaCl2 titration, pH 5.5
Procedure: Looking at the results in FIG. 6, panels a, b, c, d show changes in the proton NMR spectra of Ac-[…]NH2 (SEQ. ID. NO. 109) (P3230, panels a, b) and Ac-[…]NH2 (SEQ. ID. NO. 110) (P3231, panels c, d) upon the addition to the initial ˜450 μL of the corresponding peptide in 20 mM sodium acetate-d3 buffer, pH 5.5, containing 10% D2O, of 1 μL (final CaCl2 concentration ˜0.22 mM), additional 2 μL (final CaCl2 concentration ˜0.66 mM), additional 10 μL (final CaCl2 concentration ˜2.8 mM) of 100 mM CaCl2, and additional 10 μL (final CaCl2 concentration ˜23.9 mM) of 1 M CaCl2. Panels e and f show changes in the proton NMR spectrum of a disulfide-linked peptide Bbs-Arg-(D-Pip)-Gly-Cys . . . […](SEQ. ID. No. 16) upon the addition to the initial volume of ˜450 μL of 1 μL (final CaCl2 concentration ˜0.22 mM), additional 2 μL (final CaCl2 concentration ˜0.66 mM) of 100 mM CaCl2, and additional 10 μL (final CaCl2 concentration ˜22.2 mM) of 1 M CaCl2.
An inhibitor with a linker known to bind specific metal ions will be affected by the presence of these ions in solution. Two peptides homologous to the calcium-binding loop of troponin C were designed and established that they bind calcium ions in solution. The peptides have the following sequences—Ac-[…]NH2 (P3230) (SEQ. ID. NO. 109) and Ac-[…]NH2 (P3231) (SEQ. ID. NO. 110). The peptides were synthesized, purified and their identity was confirmed as described in Example 1. They were tested for calcium binding by use of NMR. For this both freeze-dried peptides were reconstituted at a concentration of approximately 0.5 mM in 20 mM sodium acetate-d3 buffer, pH 5.5, containing 10% D2O. Proton spectra of the peptides were recorded at 800 MHz, 15° C., before and after addition of increasing amounts of 0.1 and 1 M stock solutions of CaCl2 in the same buffer. FIGS. 6a,b,c,d show changes in the proton NMR spectra of these two peptides upon the addition to the initial volume of ˜450 μL of 1 μL (final CaCl2 concentration ˜0.22 mM), additional 2 μL (final CaCl2 concentration ˜0.66 mM), additional 10 μL (final CaCl2 concentration ˜2.8 mM) of 100 mM CaCl2, and additional 10 μL (final CaCl2 concentration ˜23.9 mM) of 1 M CaCl2. The changes in the spectra confirm binding of calcium with affinity in mM range.
One of the two designed peptides was used to construct a calcium-responsive bivalent thrombin inhibitor. The disulfide-linked bivalent thrombin inhibitor (corresponding to SEQ. ID. NO. 91) prepared by cross-oxidation of cysteine thiol groups from two peptides Bbs-Arg-(D-Pip)-Gly-Cys (SEQ. ID. NO. 4) and […](SEQ. ID. NO. 114) (preparation described in Example 1) was tested for its ability to bind calcium and inhibit amidolytic reaction in the presence and absence of calcium. […]

[5] = target: T2, SH2 domain from the Grb4 adaptor protein (Mus musculus, UniProt O55033); details: tyrosine-phosphorylated state; read-out: Affinity for the SH2 domain from Grb4; cited from earlier work
T2 sequence (O55033 285-379 limits assumed): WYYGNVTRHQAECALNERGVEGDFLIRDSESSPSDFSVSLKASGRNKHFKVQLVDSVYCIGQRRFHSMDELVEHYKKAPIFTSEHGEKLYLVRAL

CaCdc42 (R150K) = target: T3, CaCdc42 (R150K) (Candida albicans, UniProt P0CY33, R150K); experiment: Fluorescence titration of sNBD-labeled, GMPPCP-loaded CaCdc42 (R150K) with CRIB peptides; assay type: binding
T3 construct: made in house; host or cells: E. coli BL21
Procedure: In order to construct a bivalent peptide ligand for Candida Cdc42 (CaCdc42) (with a suitable linker) (FIG. 12), the binding affinities of component peptides derived from the CRIB domains of Candida Cla4 and Step 20 were determined. Residue K150 of the R150K CaCdc42 mutant was covalently modified with the fluorescent probe, sNBD (Molecular Probes, Eugene, Oreg.), essentially as described by Nomanbhoy and Cerione (Nomanbhoy, T. and Cerione, R. A., 1999, 15878-15884.). The stoichiometry of the fluorescent probe per protein molecule was estimated at 1.13, based on protein concentration determined with ε280nm=13,610 M^−1 cm^−1 (Gill, S. C. and von Hippel, P. H., 1989, 319-326), and using the absorbance of the sNBD moiety of ε463nm=22,000 M^−1 cm^−1. Interaction of the CRIB peptides with sNBD-labeled CaCdc42 was monitored using extrinsic fluorescence measurements with a Hitachi F-2500 fluorescence spectrophotometer. Samples of sNBD-labeled, activated CaCdc42 were added in the assay buffer (50 mM phosphate, pH 6.8, 50 mM NaCl and 5 mM MgCl2) to a cuvette being continuously stirred. The protein concentration was 1 μM. Individual CRIB peptide dissolved in the same assay buffer was added drop-wise to the cuvette. The mixture was excited at 488 nm with an excitation slit width of 5 nm. The emission spectra were scanned from 510 nm to 590 nm. The fluorescence emission intensity at the emission maximum 545 nm was determined from each spectrum and the final value was obtained by averaging the values from five scans of the same sample. […]
The Kd values for the binding of the CRIB peptides to sNBD-labeled activated CaCdc42 were determined by fitting the fluorescence titration data to a simple bimolecular association model as described by Leonard et al (Leonard, D. A., and others, 1997, 1173-1180). […]
[formula] The fluorescence intensity (F) is related to the dissociation constant, Kd as follows,
[formula] where F0 and Ft are the fluorescence intensities at the starting and end points of the titration, respectively. […] Average Kd values were determined from multiple independent measurements.

T3 sequence (P0CY33 1-178 R150K): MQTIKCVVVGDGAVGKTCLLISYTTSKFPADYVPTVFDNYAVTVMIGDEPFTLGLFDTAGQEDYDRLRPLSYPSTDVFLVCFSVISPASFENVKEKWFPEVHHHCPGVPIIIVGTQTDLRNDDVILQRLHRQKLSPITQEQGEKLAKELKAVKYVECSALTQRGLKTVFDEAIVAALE

CC[C@H](C)[C@H](NC(=O)[C@H](CCC(=O)O)NC(=O)[C@H](CCC(=O)O)NC(=O)[C@H](Cc1ccccc1)NC(=O)[C@H](CC(=O)O)NC(=O)CNC(=O)[C@H](CO)NC(=O)CNC(=O)[C@H](CO)NC(=O)CNC(=O)[C@H](CO)NC(=O)CNC(=O)[C@H](CO)NC(=O)CNC(=O)[C@H]1CCCCN1C(=O)[C@H](CCCNC(=N)N)NS(=O)(=O)c1ccc(C(C)(C)C)cc1)C(=O)N1CCC[C@H]1C(=O)N[C@@H](CCC(=O)O)C(=O)N[C@@H](CCC(=O)O)C(=O)N[C@@H](Cc1ccc(O)cc1)C(=O)N[C@@H](CC(C)C)C(=O)N[C@@H](CCC(N)=O)C(=O)O [P3150]
Ki (thrombin [1]; 25° C., S-2238, clotting buffer, read-out: KI, nM (25° C.)): 0.5 ± 0.2 nM | IC50 (thrombin [2]): 0.5 ± 0.1 nM | Effect of calcium on inhibition potency (α-thrombin): no visible effect

CC[C@H](C)[C@H](NC(=O)[C@H](CC(C)C)NC(=O)[C@H](CCCCN)NC(=O)[C@H](CCC(N)=O)NC(=O)[C@H](CCC(=O)O)NC(=O)CNC(=O)[C@H]1CCCCN1C(=O)[C@H](CCCNC(=N)N)NS(=O)(=O)c1ccc(C(C)(C)C)cc1)C(=O)N[C@@H](CO)C(=O)N[C@@H](CCC(=O)O)C(=O)N[C@@H](CCC(=O)O)C(=O)N[C@@H](CC(=O)O)C(=O)N[C@@H](CC(C)C)C(=O)NCC(=O)N[C@@H](CC(=O)O)C(=O)N[C@@H](Cc1ccccc1)C(=O)N[C@@H](CCC(=O)O)C(=O)N[C@@H](CCC(=O)O)C(=O)N[C@H](C(=O)N1CCC[C@H]1C(=O)N[C@@H](CCC(=O)O)C(=O)N[C@@H](CCC(=O)O)C(=O)N[C@@H](Cc1ccc(O)cc1)C(=O)N[C@@H](CC(C)C)C(=O)N[C@@H](CCC(N)=O)C(=O)O)[C@@H](C)CC [P3182]
Ki (thrombin [1]): 66 ± 13 nM | Effect of antibody 9E10 on inhibitory potency (thrombin [2]; 150 nM inhibitor, ~1.2 μM 9E10): reversed the inhibitory potency | Clotting onset time (thrombin [2]; 1.2 μM anti-c-myc antibody 9E10): approximately 230 s | Clotting onset time (thrombin [2]; no antibody): approximately 530 s | IC50 (thrombin [2]): ~25 nM

Bbs-Arg-(D-Pip)-Gly ({Benzenesulfonyl(4-tBu)}-Arg-[dPip′]-Gly) [H1]
KI of the constituent binding moiety (thrombin [3]; monovalent moiety alone): low μM range

Bbs-Arg-(D-Pip)-Gly-Cys . . . Cys-Asp-Lys-Asn-Ala-Asp-Gly-Trp-Ile-Asp-Asn-Gly-Asp-Phe-Glu-Glu-Ile-Pro-Glu-Glu-Tyr-Leu-Gln (CDKNADGWIDNGDFEEIPEEYLQ; not fully specified (N-terminus); printed as Bbs-Arg-(D-Pip)-Gly-Cys . . . Cys-Asp-Lys-Asn-Ala-Asp-Gly-Trp-Ile-Asp-Asn-Gly-Asp-Phe-Glu-Glu-Ile-Pro-Glu-Glu-Tyr-Leu-Gln; also: N-terminal part Bbs-Arg-(D-Pip)-Gly-Cys . . . precedes Cys1, intervening residues not given here) [3243-3255]
Affinity of calcium binding [4]: mM range | Effect of calcium on inhibition potency (α-thrombin; listed as SEQ. ID. NO. 91): altered inhibition | Effect of calcium on inhibition potency (α-thrombin; listed as calcium-responsive disulfide-linked bivalent thrombin inhibitor): decreased

CPHYEKVSG [ephrinB2301-309, peptide derived from the ephrinB cytoplasmic tail]
Kd [5]: 200 nM

DKNADGWIDNGDFE [P3231]
Affinity of calcium binding [4]: mM range

DKNADGWIDNGDFE [SEQ. ID. NO. 17]
Affinity of calcium binding [4]: millimolar range

DKNADGWIDNGEFE [P3230]
Affinity of calcium binding [4]: mM range

EVNIKISTPFNAKHLAHVGIDDNGNFTGLPDTWKSLLQHSKIT [mCst20-cCla4]
Kd (CaCdc42 (R150K)): 2640 ± 200 nM

EVNIKISTPFNAKHLAHVGIDDNGSYTGLPIEWERLLSASGIT [eCst20]
Kd (CaCdc42 (R150K)): 46 nM

GGNSGFPGPINFTHKVHVGFDRKSLTIYAQVQKNFTGLPDTWKSLLQHSKIT [eCla4-SLAM, GGNSGFPGPINFTHKVHVGFDRKSLTIYAQVQKNFTGLPDTWKSLLQHSKIT]
Kd (CaCdc42 (R150K)): 127 ± 70 nM

WDPRPQRHNDGDFEEIPEEYLQ [SEQ. ID. NO. 18]
Ki (thrombin [3]; subject of another patent application, read-out: KI for thrombin inhibition): ~17 nM and 17 nM
